Data from patent publication US8202902B2, “Bivalent SMAC mimetics and the uses thereof” (The Regents of the University of Michigan, priority 2006, dated 2012).

What was measured:
[1] = target: T1, XIAP protein containing both BIR2 and BIR3 domains (Homo sapiens, UniProt P98170); assay: Fluorescence-polarization based binding assay, XIAP BIR2-BIR3
T1 construct: XIAP protein containing both BIR2 and BIR3 domains; made in house

[2] = tested on: Sensitive cancer cell lines; assay: Secreted TNFα in cell culture medium (ELISA), sensitive lines; type: cell-based
Procedure: (§1) To explore whether the resistance of cancer cells to Smac mimetics is due to the lack of secreted TNFα, the levels of secreted TNFα were examined. Secreted TNFα concentrations were determined in 200 μl of cell culture medium using the Quantikine HS Human TNFα ELISA kit (R&D Systems). The assay was performed according to the manufacturer's instructions.

[3] = tested on: MAMEL-3M melanoma cell line; assay: Cell growth inhibition, WST-8 assay, MAMEL-3M; type: cell-based; details: 96 h, 4 days
Procedure: Cells were seeded in 96-well flat bottom cell culture plates at a density of 3000 cells/well with a tested compound and incubated at 37° C. in an atmosphere of 95% air and 5% CO2 for 4 days. The rate of cell growth inhibition after treatment with different concentrations of the compound was determined using a WST-8 kit (2-(2-methoxy-4-nitrophenyl)-3-(4-nitrophenyl)-5-(2, 4 disulfophenyl)-2H-tetrazolium monosodium salt; Dojindo Molecular Technologies, Inc., Gaithersburg, Md.). WST-8 was added at a final concentration of 10% to each well, and then the plates were incubated at 37° C. for 2-3 hrs. The absorbance of the samples was measured at 450 nm using a ULTRA Tecan Reader (Molecular Device).

[4] = tested on: MDA-MB-231 and SK-OV-3 cancer cell lines; assay: Role of caspase-8, -3 and -9 (siRNA, caspase inhibitors) in activity of Smac mimetics; type: cell-based; details: siRNA
Description: To examine the role of caspase-8, -3 and -9 in apoptosis induction by Smac mimetics, siRNA was employed against these caspases in MDA-MB-231 and SK-OV-3 cancer cell lines.

[5] = tested on: MDA-MB-231 xenograft model; assay: Inhibition of tumor growth in the MDA-MB-231 xenograft model; type: in vivo, mice
Procedure: SM-164 was evaluated for its ability to inhibit tumor growth. […] Treatment with SM-164 at 5 mg/kg reduces the tumor volume from 147±54 mm^3 at the beginning of the treatment (day 25) to 54±32 mm^3 at the end of the treatment (day 36), a reduction of 65%. The strong antitumor activity by SM-164 is long lasting and not transient.

[6] = tested on: cIAP-1 in cancer cell lines; assay: Induction of cIAP-1 degradation in cancer cells; type: cell-based
[7] = tested on: resistant cancer cell lines (MDA-MB-453 breast, DU-145 prostate, MDA-MB-435 melanoma); assay: Secreted TNFα in cell culture medium (ELISA), resistant lines; type: cell-based
Procedure: as §1

MAMLE-3M cells = assay: Trypan blue cell viability assay, MAMLE-3M; type: cell-based; details: 100 nM, 2 days
Procedure: 0.3×10^6 cells were seeded in 6 well plates and incubated at 37° C. in an atmosphere of 95% air and 5% CO2 without or with tested compound for 2 days. A 1:1 dilution of 0.4% Trypan blue (Invitrogen Corporation) was used to determine cell viability.

[8] = tested on: SK-OV-3 ovarian cancer cell line; assay: Apoptosis assay (Annexin V/P.I.), SK-OV-3; type: cell-based; details: 1 nM for 12 h
Procedure: Analysis of apoptosis was performed using an apoptosis detection kit (BioVision Research Products, Mountain View, Calif.) according to the manufacturer's protocol. Briefly, cells were treated with Smac mimetics for 12 hours, harvested and washed with ice-cold PBS. Cells were stained with Annexin V-FITC and Propidium iodide (P.I.) for 15 minutes at room temperature in the dark and immediately analyzed by FACS calibur flow cytometer (Becton Dickinson, Erembodegem, Belgium). Cells that were stained Annexin V (+) and P.I. (−) were considered early-stage apoptotic cells. Cells that were stained annexin V (+) and P.I. (+) were considered late-stage apoptotic cells and cells that were stained annexin V (−) and P.I. (+) were considered necrotic cells (FIG. 6).
Treatment with SM-164 at 1 nM for 12 h induced 32%, 33%, and 37% of the MDA-MB-231, SK-OV-3 and MALME-3M cells to undergo apoptosis, respectively (FIGS. 12-14).

[9] = tested on: MDA-MB-231 xenograft tumor tissues; assay: cIAP-1 degradation and apoptosis in MDA-MB-231 xenograft tumor and normal tissues; type: in vivo, mice
Procedure: To further investigate its therapeutic potential and in vivo mechanism, SM-164 was evaluated in the MDA-MB-231 xenograft model in mice. […] A single dose of SM-164 at 5 mg/kg decreased the level of cIAP-1 protein within 1 h and the effect lasted for at least 24 h. […] Apoptosis was examined by TUNEL staining using the In situ Cell Death Detection Kit (Roche Applied Science). To determine apoptosis in xenograft tumor and normal mouse tissues, severe combined immunodeficient (SCID) mice bearing established tumor were treated with Smac mimetics. Tissues were harvested and TUNEL staining was performed on formaldehyde-fixed, paraffin-embedded tissues. Paraffin-embedded tissue sections, mounted on slides, were deparaffinized and rehydrated by washing in a descending series of alcohol solutions (100%, 95%, 70% and 50%) and PBS. Antigen retrieval was performed by the microwave oven method using a commercially available antigen retrieval buffer (Covance Research Products, Inc.). Tissue sections were blocked with 3% BSA and 20% normal bovine serum in PBS for 30 min at room temperature (RT) to block unspecific binding sites. Tissue sections were incubated in 100 μl of TUNEL mixture [TUNEL mixture=10 μl of Enzyme solution (Vial 1)+90 μl of Label solution (Vial 2)] for 60 min at RT. Tissue section incubated in 90 μl of Label solution (Vial 2), instead of TUNEL mixture was used as negative control. Tissue section preincubated in DNase I recombination in 3000 U/ml of PBS, 1 mg/ml BSA for 10 min RT, followed by incubation with TUNEL mixture was used as positive control. Tissues slides were rinsed with PBS 5 min ×3, and stained with Propidium iodide and mounted and observed under a fluorescent microscope. […] The strong apoptosis induction by SM-164 was still evident at the 24 h time point. […] In contrast to the strong apoptosis induction and damage in xenograft tumor tissues, SM-164 has no effect on all the normal mouse tissues examined, including highly proliferative tissues such as the small intestine, stomach, liver and spleen (FIGS. 47-49).
Using the MDA-MB-231 xenograft model, SM-122 was also examined for its ability to induce cIAP-1 degradation and apoptosis in tumor tissues in vivo.

[10] = tested on: HCT116 and MDA-MB-453 cell lines; assay: Activity with exogenous TNFα in resistant cancer cell lines; type: cell-based

T1 sequence (P98170 120-356 limits assumed): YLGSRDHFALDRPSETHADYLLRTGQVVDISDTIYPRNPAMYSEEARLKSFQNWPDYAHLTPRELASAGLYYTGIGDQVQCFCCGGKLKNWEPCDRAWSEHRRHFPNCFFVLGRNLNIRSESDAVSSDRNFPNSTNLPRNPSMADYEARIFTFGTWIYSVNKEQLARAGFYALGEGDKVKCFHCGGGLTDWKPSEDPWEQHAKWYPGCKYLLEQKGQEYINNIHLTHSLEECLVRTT

Compound: CN[C@@H](C)C(=O)N[C@H]1CCCC[C@H]2CC[C@@H](C(=O)N[C@@H](c3ccccc3)c3cn(CCCCc4ccc(CCCCn5cc([C@@H](NC(=O)[C@@H]6CC[C@@H]7CCCC[C@H](NC(=O)[C@H](C)NC)C(=O)N76)c6ccccc6)nn5)cc4)nn3)N2C1=O [SH-164]
- more potent than monovalent SM-122 for binding to XIAP [1]: 300 times
- secretion of TNFα [2]: further enhanced
- IC50 [3]: 1.4 nM
- effect of knockdown of caspase-3 and -8 on activity [4]: markedly attenuated
- effect of knockdown of caspase-9 on activity [4]: minimal effect
- tumor growth during the treatment ([5]; 1 mg/kg): completely inhibits tumor growth
- tumor volume at the beginning of the treatment ([5]; 5 mg/kg, day 25): 147±54 mm^3
- reduction of tumor volume ([5]; 5 mg/kg, day 25 to day 36): 65%
- tumor volume at the end of the treatment ([5]; 5 mg/kg, day 36): 54±32 mm^3
- efficacy compared with TXT ([5]; 5 mg/kg, end of treatment (p<0.01) or control tumor 750 mm^3 (p<0.02)): statistically more effective than TXT
- weight loss or other sign of toxicity ([5]; 1 or 5 mg/kg): no significant weight loss or other sign of toxicity
- cIAP-1 level ([6]; 1 nM for 60 min, sensitive cancer cell lines): reduced cIAP-1 markedly
- cIAP-1 degradation ([6]; 100 nM, SK-OV-3 cell line (FIG. 28)): rapid cIAP-1 degradation
- cIAP-1 level / degradation ([6]; 10-100 nM, sensitive cancer cell lines): undetectable levels
- levels of XIAP protein ([6]; MDA-MB-231 and SK-OV-3, 12-24 h time points): reduced
- cIAP-1 degradation ([6]; resistant cancer cell lines): rapid cIAP-1 degradation
- induction of TNFα [7]: failed to induce detectable levels of TNFα
- cell death (MAMLE-3M cells): at least 70%
- cells undergoing apoptosis [8]: 33%
- activation of caspase-8, -9, and -3 and cleavage of PARP ([9]; 3 h time point, persisted for 24 h): Robust activation
- TUNEL positive tumor cells ([9]; 6 h time point): more than 50%
- H&E staining of tumor tissues ([9]; mouse, in vivo): profound damage to tumor tissues
- duration of cIAP-1 decrease ([9]; single dose 5 mg/kg): at least 24 h
- time to decrease of cIAP-1 protein level in tumor ([9]; single dose 5 mg/kg): ≤ 1 h
- effect on normal mouse tissues ([9]; small intestine, stomach, liver, spleen etc.): no effect
- effect of exogenous TNFα on activity [10]: significantly enhanced
